Measurements from patent US6737383B1, “Herbicidal oxadiazolidines” (priority 1999, dated 2004).

Legend:
[1] = tested on: bamyardgrass; assay: Test B flood test barnyardgrass; type: in vivo, Echinochloa crus-galli
Method in brief: (§1)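 Read-out is a visual response score from 0 (no effect) to 10 (complete control), assigned by comparison with untreated controls. Treatment was applied at the 2-leaf stage, and plants stayed in the greenhouse for twelve to sixteen days before scoring.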

[2] = tested on: pigweed; assay: Test B pre/postemergence pigweed; type: in vivo, Amaranthus retroflexus
Method in brief: (§2)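 Test chemicals in a non-phytotoxic solvent mixture with surfactant were sprayed preemergence onto planted seeds and postemergence onto plants 2 to 18 cm tall (1- to 4-leaf stage). After twelve to sixteen days in a greenhouse, injury was visually rated against untreated controls from 0 (no effect) to 10 (complete control).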

[3] = tested on: smallflower flatsedge; assay: Test B flood test smallflower flatsedge; type: in vivo, Cyperus difformis
Method in brief: as §1

[4] = tested on: velvetleaf; assay: Test B pre/postemergence velvetleaf; type: in vivo, Abutilon theophrasti
Method in brief: as §2

[5] = tested on: corn; assay: Test B pre/postemergence corn; type: in vivo, Zea mays
Method in brief: as §2

[6] = tested on: sugar beet; assay: Test B pre/postemergence sugar beet; type: in vivo, Beta vulgaris
Method in brief: as §2

[7] = tested on: morningglory; assay: Test B pre/postemergence morningglory; type: in vivo, Ipomoea hederacea
Method in brief: as §2

[8] = tested on: cocklebur; assay: Test B pre/postemergence cocklebur; type: in vivo, Xanthium strumarium
Method in brief: as §2

[9] = tested on: rice; assay: Test B flood test rice; type: in vivo, Oryza sativa
Method in brief: as §1

[10] = tested on: purple nutsedge; assay: Test B pre/postemergence purple nutsedge; type: in vivo, Cyperus rotundus; conditions: Preemergence
Method in brief: as §2

[11] = tested on: blackgrass; assay: Test B pre/postemergence blackgrass; type: in vivo, Alopecurus myosuroides
Method in brief: as §2

[12] = tested on: surinam grass; assay: Test B pre/postemergence surinam grass; type: in vivo, Brachiaria decumbens
Method in brief: as §2

[13] = tested on: wild oat; assay: Test B pre/postemergence wild oat; type: in vivo, Avena fatua
Method in brief: as §2

[14] = tested on: soybean; assay: Test B pre/postemergence soybean; type: in vivo, Glycine max
Method in brief: as §2

[15] = tested on: bedstraw; assay: Test B pre/postemergence bedstraw; type: in vivo, Galium aparine
Method in brief: as §2

[16] = tested on: rape; assay: Test B pre/postemergence rape; type: in vivo, Brassica napus
Method in brief: as §2

[17] = Postemergence, Rate 1000 g/ha, scale 0 to 10 (0 no effect, 10 complete control)
[18] = Rate 125 g/ha, Postemergence section (flood test species), scale 0 to 10, 0 no effect, 10 complete control
[19] = Rate 500 g/ha, Postemergence section of Table B, 0 to 10 scale (0 no effect, 10 complete control)
[20] = flood test, listed under Postemergence, Rate 250 g/ha, scale 0 to 10, 0 no effect, 10 complete control
[21] = Postemergence, Rate 250 g/ha, scale 0 to 10, 0 no effect, 10 complete control
[22] = Preemergence, Rate 125 g/ha, scale 0 to 10 (0 no effect, 10 complete control)
[23] = Preemergence, Rate 250 g/ha, scale of 0 to 10 where 0 is no effect and 10 is complete control
[24] = Preemergence, Rate 500 g/ha, scale 0 (no effect) to 10 (complete control)
[25] = Rate 125 g/ha, Postemergence, scale 0 to 10, 0 no effect, 10 complete control
[26] = Rate 500 g/ha, Postemergence, 0 to 10 scale (0 no effect, 10 complete control)
[27] = Rate 1000 g/ha, Preemergence, scale 0 to 10 (0 no effect, 10 complete control)

CC(C)N(C(=O)n1oc(=O)n(-c2ccccc2Cl)c1=O)c1ccc(F)cc1 [Compound 8]
Barnyardgrass plant response rating [1, 17]: 0
Barnyardgrass plant response rating [1, 18]: 0
Barnyardgrass plant response rating [1, 19]: 0
Barnyardgrass plant response rating [1, 20]: 0
Redroot pigweed plant response rating [2, 21]: 0
Redroot pigweed plant response rating [2, 17]: 5
Plant response rating, Redroot pigweed [2, 22]: 4
Plant response rating, Redroot pigweed [2, 23]: 5
Redroot pigweed plant response rating [2, 24]: 5
Redroot pigweed plant response rating [2, 25]: 0
Redroot pigweed plant response rating [2, 26]: 0
Plant response rating, Redroot pigweed [2, 27]: 7
S. Flatsedge plant response rating [3, 17]: 0
S. Flatsedge plant response rating [3, 18]: 0
S. Flatsedge plant response rating [3, 20]: 0
Velvetleaf plant response rating [4, 21]: 0
Velvetleaf plant response rating [4, 17]: 1
Plant response rating, Velvetleaf [4, 22]: 0
Velvetleaf plant response rating [4, 24]: 0
Velvetleaf plant response rating [4, 25]: 0
Plant response rating, Velvetleaf [4, 27]: 4
Corn plant response rating [5, 21]: 0
Corn plant response rating [5, 17]: 3
Plant response rating, Corn [5, 22]: 0
Plant response rating, Corn [5, 23]: 0
Corn plant response rating [5, 24]: 0
Corn plant response rating [5, 25]: 0
Corn plant response rating [5, 26]: 0
Plant response rating, Corn [5, 27]: 3
Sugarbeets plant response rating [6, 21]: 0
Sugarbeets plant response rating [6, 17]: 2
Plant response rating, Sugarbeets [6, 22]: 0
Plant response rating, Sugarbeets [6, 23]: 0
Sugarbeets plant response rating [6, 24]: 0
Sugarbeets plant response rating [6, 25]: 0
Plant response rating, Sugarbeets [6, 27]: 0
Morningglory plant response rating [7, 21]: 0
Morningglory plant response rating [7, 17]: 6
Plant response rating, Morningglory [7, 22]: 0
Plant response rating, Morningglory [7, 23]: 0
Morningglory plant response rating [7, 24]: 0
Morningglory plant response rating [7, 25]: 0
Morningglory plant response rating [7, 26]: 2
Plant response rating, Morningglory [7, 27]: 0
Cocklebur plant response rating [8, 21]: 0
Cocklebur plant response rating [8, 17]: 2
Plant response rating, Cocklebur [8, 22]: 0
Plant response rating, Cocklebur [8, 23]: 0
Cocklebur plant response rating [8, 24]: 0
Cocklebur plant response rating [8, 25]: 0
Cocklebur plant response rating [8, 26]: 1
Plant response rating, Cocklebur [8, 27]: 0
Rice plant response rating [9, 17]: 0
Rice plant response rating [9, 18]: 0
Rice plant response rating [9, 19]: 0
Rice plant response rating [9, 20]: 0
Plant response rating, Nutsedge ([10]; Rate 125 g/ha, scale 0 to 10 (0 no effect, 10 complete control)): 0
Plant response rating, Nutsedge ([10]; Rate 250 g/ha, scale of 0 to 10 where 0 is no effect and 10 is complete control): 0
Nutsedge plant response rating ([10]; Rate 500 g/ha, scale 0 (no effect) to 10 (complete control)): 0
Plant response rating, Nutsedge ([10]; Rate 1000 g/ha, scale 0 to 10 (0 no effect, 10 complete control)): 0
Blackgrass plant response rating [11, 21]: 2
Blackgrass plant response rating [11, 17]: 5
Plant response rating, Blackgrass [11, 22]: 0
Plant response rating, Blackgrass [11, 23]: 0
Blackgrass plant response rating [11, 24]: 0
Blackgrass plant response rating [11, 25]: 0
Blackgrass plant response rating [11, 26]: 2
Plant response rating, Blackgrass [11, 27]: 4
B. signalgrass plant response rating [12, 21]: 0
B. signalgrass plant response rating [12, 17]: 3
Plant response rating, B. signalgrass [12, 22]: 0
Plant response rating, B. signalgrass [12, 23]: 4
B. signalgrass plant response rating [12, 24]: 5
B. signalgrass plant response rating [12, 25]: 0
B. signalgrass plant response rating [12, 26]: 0
Plant response rating, B. signalgrass [12, 27]: 6
Wild oats plant response rating [13, 21]: 0
Wild oats plant response rating [13, 17]: 3
Plant response rating, Wild oats [13, 22]: 0
Plant response rating, Wild oats [13, 23]: 0
Wild oats plant response rating [13, 24]: 2
Wild oats plant response rating [13, 25]: 0
Plant response rating, Wild oats [13, 27]: 3
Soybean plant response rating [14, 21]: 4
Soybean plant response rating [14, 17]: 5
Plant response rating, Soybean [14, 22]: 0
Plant response rating, Soybean [14, 23]: 0
Soybean plant response rating [14, 24]: 0
Soybean plant response rating [14, 25]: 3
Plant response rating, Soybean [14, 27]: 0
Bedstraw plant response rating [15, 21]: 2
Bedstraw plant response rating [15, 17]: 3
Plant response rating, Bedstraw [15, 22]: 0
Plant response rating, Bedstraw [15, 23]: 0
Bedstraw plant response rating [15, 24]: 0
Bedstraw plant response rating [15, 25]: 2
Bedstraw plant response rating [15, 26]: 3
Plant response rating, Bedstraw [15, 27]: 0
Rape plant response rating [16, 21]: 0
Rape plant response rating [16, 17]: 0
Plant response rating, Rape [16, 22]: 0
Plant response rating, Rape [16, 23]: 0
Rape plant response rating [16, 24]: 0
Rape plant response rating [16, 25]: 0
Rape plant response rating [16, 26]: 0
Plant response rating, Rape [16, 27]: 0
